The results in this text go back to ChEMBL document CHEMBL1147075, “Immunotherapeutic activity of a conjugate of a Toll-like receptor 7 ligand” (Proc Natl Acad Sci U S A, 2007).

Active and inactive are the calls of the source. The rule behind the calls is not given here.

One test deals with Bacillus anthracis. Description: Protection against Bacillus anthracis infection in A/J mouse. It counts as functional, organism-based.
For a further test, the system named is BMDM. In words: Induction of cytokine release in mouse BMDM cells at 0.01 to 10 uM after 24 hrs by ELISA. It counts as functional, cell-based. Background: ELISA stands for enzyme-linked immunosorbent assay.

`COCCOc1nc(N)c2nc(O)n(Cc3ccc(C=O)cc3)c2n1`: the result in the test on Bacillus anthracis was inactive. Further, in the test on BMDM, the result was Active.
